The supplement of paper PMC9938120

How the values were obtained:
Assay in all cases: drug sensitivity score (DSS3, normalised partial AUC of % inhibition dose-response) (DSS (score)); higher = more sensitive (stronger inhibition of viability); extreme values may be limits of the assay
FMOC25_1 = patient-derived low-grade serous ovarian cancer cells; settings: 72 h; library: FO4B; assay format: 2D, 384-well, CellTiter-Glo
In short: (§1)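 The drug sensitivity score is calculated as a partial area under the percent-inhibition dose-response curve, divided by the log of the upper asymptote; higher scores mean more sensitive. For this score, early-passage (under 10) patient-derived ovarian cancer cells were exposed on 384-well flat clear-bottom plates to compounds at five concentrations across a 10,000-fold range for 72 h at 37 °C, 5% CO2. Viability was read with CellTiter-Glo and processed in Breeze.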

FMOC02_2 = patient-derived low-grade serous ovarian cancer cells; settings: 72 h; library: FO5A; assay format: 2D, 384-well, CellTiter-Glo
In short: as §1

FMOC02_3 = patient-derived low-grade serous ovarian cancer cells; settings: 72 h; library: FO5A; assay format: 2D, 384-well, CellTiter-Glo
In short: as §1

FMOC03 = patient-derived mucinous ovarian cancer cells; settings: 72 h; library: FO5A; assay format: 2D, 384-well, CellTiter-Glo
In short: as §1

FMOC06 = patient-derived mucinous ovarian cancer cells; settings: 72 h; library: FO5A; assay format: 2D, 384-well, CellTiter-Glo
In short: as §1

FMOC09 = patient-derived high-grade serous ovarian cancer cells; settings: 72 h; library: FO5A; assay format: 2D, 384-well, CellTiter-Glo
In short: as §1

FMOC14 = patient-derived high-grade serous ovarian cancer cells; settings: 72 h; library: FO5A; assay format: 2D, 384-well, CellTiter-Glo
In short: as §1

FMOC22 = patient-derived mucinous ovarian cancer cells; settings: 72 h; library: FO5A; assay format: 2D, 384-well, CellTiter-Glo
In short: as §1

FMOC24 = patient-derived high-grade serous ovarian cancer cells; settings: 72 h; library: FO5A; assay format: 2D, 384-well, CellTiter-Glo
In short: as §1

FMOC25_2 = patient-derived low-grade serous ovarian cancer cells; settings: 72 h; library: FO5A; assay format: 2D, 384-well, CellTiter-Glo
In short: as §1

Row | Structure (SMILES) | drug sensitivity score (FMOC25_1) | drug sensitivity score (FMOC02_2) | drug sensitivity score (FMOC02_3) | drug sensitivity score (FMOC03) | drug sensitivity score (FMOC06) | drug sensitivity score (FMOC09) | drug sensitivity score (FMOC14) | drug sensitivity score (FMOC22) | drug sensitivity score (FMOC24) | drug sensitivity score (FMOC25_2)
1 | CC(=O)NCC(=O)N1[C@@H]2CC[C@H]1c1ccc(Nc3ncc(C(F)(F)F)c(NC4CCC4)n3)cc12 | 9.1 |  |  |  |  |  |  |  |  | 
2 | CC(C)CC(=O)Nc1n[nH]c2c1CN(C(=O)C1CCN(C)CC1)C2(C)C | 5.5 |  |  |  |  |  |  |  |  | 
3 | CCNC(=O)C[C@@H]1N=C(c2ccc(Cl)cc2)c2cc(OC)ccc2-n2c(C)nnc21 | 3.8 |  |  |  |  |  |  |  |  | 
4 | CCc1cc(Nc2nccc(-c3c(-c4ccc(OC)c(C(=O)Nc5c(F)cccc5F)c4)nc4ccccn34)n2)c(OC)cc1N1CCC(N2CCN(S(C)(=O)=O)CC2)CC1 | 3.9 |  |  |  |  |  |  |  |  | 
5 | CN(c1ccccc1CNc1nc(Nc2ccc3c(c2)CC(=O)N3)ncc1C(F)(F)F)S(C)(=O)=O | 7 |  |  |  |  |  |  |  |  | 
6 | CN1CCC(COc2cnc(-c3cccc(Cn4nc(-c5cccc(C#N)c5)ccc4=O)c3)nc2)CC1 | 0 |  |  |  |  |  |  |  |  | 
7 | COCC(=O)NC/C=C/c1ccc2ncnc(Nc3ccc(Oc4ccc(C)nc4)c(C)c3)c2c1 | 3.2 |  |  |  |  |  |  |  |  | 
8 | CS(=O)(=O)N1CCc2c(-c3cnc(N)nc3)nc(N3CCOCC3)nc21 | 10.5 |  |  |  |  |  |  |  |  | 
9 | Cc1c(NC(=O)OC[C@@H]2COCCN2)cn2ncnc(Nc3ccc4c(cnn4Cc4cccc(F)c4)c3)c12 | 9.1 |  |  |  |  |  |  |  |  | 
10 | Cn1cc(-c2ccc3nnc(C(F)(F)c4ccc5ncccc5c4)n3n2)cn1 | 0 |  |  |  |  |  |  |  |  | 
11 | O=C(NOCC1CC1)c1ccc(F)c(F)c1Nc1ccc(I)cc1Cl | 7.5 |  |  |  |  |  |  |  |  | 
12 | O=C1NC(=O)/C(=C/c2ccc3nccc(-c4ccncc4)c3c2)S1 | 9.8 |  |  |  |  |  |  |  |  | 
13 | O=c1cc(N2CCOCC2)oc2c(-c3ccccc3)cccc12 | 9.1 |  |  |  |  |  |  |  |  | 
14 | OCCn1cc(-c2cnc3nnn(Cc4ccc5ncccc5c4)c3n2)cn1 | 0 |  |  |  |  |  |  |  |  | 
15 | Oc1c2ccccc2c2c3c(cccc13)N=N2 | 4.3 |  |  |  |  |  |  |  |  | 
16 | Cc1ccc(NS(=O)(=O)c2cccc(C#N)c2)c2[nH]cc(C#N)c12 [E7820] |  | 4.4 | 10.1 | 3.9 | 1.5 | 12.4 | 4.5 | 10.5 | 16.3 | 7.4
17 | NC(=O)/C(=C/n1cnc(-c2cc(C(F)(F)F)cc(C(F)(F)F)c2)n1)c1cncnc1 [Eltanexor] |  | 16.2 | 24.5 | 12.5 | 23 | 13.3 | 12.4 | 16.5 | 23.7 | 23
18 | COc1cccc2c1C(=O)c1c(O)c3c(c(O)c1C2=O)C[C@@](O)(C(=O)CO)C[C@@H]3O[C@H]1C[C@H](N)[C@@H](O)[C@H](C)O1 [Epirubicin] |  | 3.9 | 7 | 4.3 | 4.2 | 5.2 | 3.8 | 5.7 | 4.8 | 8.2
19 | CCOc1ccccc1-n1c(C(C)N2CCN(C(=O)COc3ccc(Cl)cc3)CC2)nc2ccccc2c1=O (centres undefined) [Erastin] |  | 0.3 | 3.9 | 6.1 | 8 | 2.2 | 14.6 | 0.2 | 0.1 | 4.7
20 | C=C1C[C@@H]2CC[C@@]34C[C@H]5O[C@H]6[C@@H](O3)[C@H]3O[C@H](CC[C@@H]3O[C@H]6[C@H]5O4)CC(=O)C[C@@H]3[C@@H](OC)[C@@H](C[C@H](O)CN)O[C@H]3C[C@H]3O[C@@H](CC[C@@H]1O2)C[C@@H](C)C3=C [Eribulin] |  | 14.9 | 19.2 | 18 | 12.1 | 13.1 | 0 | 15.5 | 0.6 | 15.1
21 | CC1(C)OCCn2c1nc1c(N3CCOCC3)nc(-c3cnc(N)nc3)nc12 [GDC-0084] |  | 18.1 | 18.5 | 10.5 | 10.9 | 9.6 | 9.2 | 7.4 | 7.5 | 16.2

Row | Structure (SMILES) | drug sensitivity score (FMOC25_1) | drug sensitivity score (FMOC02_2) | drug sensitivity score (FMOC02_3) | drug sensitivity score (FMOC03) | drug sensitivity score (FMOC06) | drug sensitivity score (FMOC09) | drug sensitivity score (FMOC14) | drug sensitivity score (FMOC22) | drug sensitivity score (FMOC24) | drug sensitivity score (FMOC25_2)
22 | CC(C)C[C@H](NC(=O)CNC(=O)c1cc(Cl)ccc1Cl)B(O)O [Ixazomib] |  | 14.3 | 6 | 15.1 | 12.1 | 6.8 | 15.3 | 16.6 | 16.8 | 14.5
23 | CCNCCS(=O)(=O)NC[C@@]1(c2ccccc2)SC(NC(=O)C(C)(C)C)=NN1C(=O)C(C)(C)C [Litronesib] |  | 4.9 | 11.6 | 7.9 | 0.7 | 6.8 | 0 | 9.2 | 0 | 13.5
24 | CCCCCCCCCCCCCCCCOP(=O)([O-])OCC[N+](C)(C)C [Miltefosine] |  | 5.5 | 6.9 | 5.6 | 9.1 | 8.4 | 8.7 | 10 | 9.8 | 5.1
25 | CCS(=O)(=O)Nc1ccc(Oc2ccc(F)cc2F)c(-c2cn(C)c(=O)c3[nH]ccc23)c1 [Mivebresib] |  | 20.3 | 30.3 | 13.9 | 16.6 | 10.9 | 11.7 | 11.7 | 17.6 | 16.4
26 | CCNC(=O)C[C@@H]1N=C(c2ccc(Cl)cc2)c2cc(OC)ccc2-n2c(C)nnc21 [Molibresib] |  | 6.9 | 10.2 | 3.4 | 3.6 | 2.1 | 1.7 | 3.1 | 5 | 5.6
27 | COc1cc2c(cc1OC(C)C)[C@H](c1ccc(Cl)cc1)N(c1ccc(N(C)C[C@H]3CC[C@H](N4CCN(C)C(=O)C4)CC3)cc1)C(=O)C2 [NVP-CGM097] |  | 12.2 | 18 | 5.9 | 5.5 | 5.9 | 6.3 | 6.9 | 8.6 | 13
28 | CN[C@@H](C)C(=O)N[C@H](C(=O)N1CCC[C@H]1c1nc(C(=O)c2ccc(F)cc2)cs1)C1CCCCC1 [NVP-LCL161] |  | 1.7 | 1.9 | 3.9 | 10.9 | 0 | 7.1 | 0.6 | 32.1 | 9.8
29 | Cn1c(Nc2ccc(C(F)(F)F)cc2)nc2cc(Oc3ccnc(-c4ncc(C(F)(F)F)[nH]4)c3)ccc21 [NVP-RAF265] |  | 8 | 12.7 | 2 | 0.8 | 0 | 1.6 | 1.6 | 2 | 6.6
30 | CC(=O)c1cc2c(o1)C(=O)c1ccccc1C2=O [Napabucasin] |  | 18.3 | 17.9 | 18.2 | 14.7 | 19.2 | 18.2 | 18.5 | 17.5 | 15
31 | CC(=O)c1cnc2ccc(-c3cc(Cl)c(O)c(Cl)c3)nc2c1N[C@H]1CC[C@H](CN(C)C)CC1 [OTS167] |  | 13.5 | 12.6 | 7.7 | 6.3 | 13.1 | 13 | 7.2 | 12.8 | 15.1
32 | CC1(C)CC[C@]2(NC(=O)C(C)(F)F)CC[C@]3(C)[C@H](C(=O)C=C4[C@@]5(C)C=C(C#N)C(=O)C(C)(C)[C@@H]5CC[C@]43C)[C@@H]2C1 [Omaveloxolone] |  | 9.3 | 10 | 18.7 | 15.8 | 14 | 11.6 | 15.9 | 9.7 | 13.9
33 | Cn1nccc1Nc1nccc(-c2ccn([C@H](CO)c3ccc(Cl)c(F)c3)c(=O)c2)n1 [Ravoxertinib] |  | 7.1 | 8.3 | 4.6 | 8.7 | 1.9 | 0 | 3.9 | 5.5 | 6.3
34 | CC[C@@H](C(=O)[C@@H](C)[C@@H](O)[C@H](C)[C@@H]1O[C@@H]([C@@H](CC)C(=O)O)CC[C@@H]1C)[C@H]1O[C@]2(C=C[C@@H](O)[C@]3(CC[C@@](C)([C@H]4CC[C@](O)(CC)[C@H](C)O4)O3)O2)[C@H](C)C[C@@H]1C [Salinomycin] |  | 15.4 | 1.1 | 12.5 | 16.6 | 16.4 | 23.3 | 10.6 | 26.1 | 16.5
35 | CC(C)n1nc(-c2ccc3oc(N)nc3c2)c2c(N)ncnc21 [Sapanisertib] |  | 18.5 | 20.3 | 13.7 | 12.9 | 8.7 | 9.5 | 11.7 | 7.7 | 18.1
36 | Nc1nc2cc(-c3ccc4ncc(C(=O)N5CCOCC5)n4c3)ccc2o1 [Serabelisib] |  | 6.6 | 7.2 | 3 | 3.5 | 1.3 | 0.1 | 2.1 | 0 | 6.7
37 | COc1cc2c(Nc3ccc(Cl)c(Cl)c3F)ncnc2cc1OC[C@@H]1C[C@@H]2CN(C)C[C@@H]2C1 [Tesevatinib] |  | 20.6 | 21 | 18.9 | 4.4 | 16.3 | 6.5 | 2 | 2.4 | 18.5
38 | Nc1cc(F)ccc1NC(=O)c1ccc(CNC(=O)/C=C/c2cccnc2)cc1 [Tucidinostat] |  | 6.2 | 5.5 | 7.7 | 8.1 | 0.8 | 7.4 | 4.4 | 9 | 4.3
39 | C=CC(=O)N1CC/C(=C\c2ccc(F)c([N+](=O)[O-])c2)C(=O)/C(=C/c2ccc(F)c([N+](=O)[O-])c2)C1 [VLX1570] |  | 22.3 | 25 | 15.2 | 18.2 | 23 | 14.8 | 10.7 | 15.4 | 14.7
40 | CNC(=O)c1cccc(-c2ccc3c(N4CCOC[C@@H]4C)nc(N4CCOC[C@@H]4C)nc3n2)c1 [Vistusertib] |  | 20.9 | 21.6 | 13.1 | 14.8 | 8.9 | 12.6 | 9.7 | 8.35 | 18.2
41 | Cc1sc2c(c1C)C(c1ccc(Cl)cc1)=N[C@@H](CC(=O)NCCCCNC(=O)COc1cccc3c1C(=O)N(C1CCC(=O)NC1=O)C3=O)c1nnc(C)n1-2 (some centres undefined) [dBET1] |  | 8.8 | 8.6 | 4.5 | 12.9 | 4.5 | 8.9 | 3.8 | 0.2 | 0.3
